# Test results from patent US10100064B2, “Purine inhibitors of human phosphatidylinositol 3-kinase delta” (Merck Sharp & Dohme Corp., priority 2014, dated 2018).
# Tests used:
# PI3Kdelta = target: T1, PI3Kdelta (Homo sapiens, UniProt O00329); assay: HTRF PI3K biochemical assay, delta isoform; conditions: 0.3 nM enzyme, 100 uM ATP, 5 uM PIP2, form screened (Neutral or TFA salt) given per compound
# T1 construct: purchased Upstate; Millipore 14-604
# Method in brief: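 PI3Kδ at 0.3 nM with 100 uM ATP and 5 uM PIP2, 10-point 3-fold dilutions, 15 min enzyme–compound pre-incubation, then 1 h reaction at room temperature. PIP3 formation detected by HTRF displacement of biotin-PIP3 from GST-GRP1-PH (665/620 nm ratio). IC50 corrected using a PIP3 standard curve.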
# PI3Kalpha = target: T2, PI3Kalpha (Homo sapiens, UniProt P42336); assay: HTRF PI3K biochemical assay, alpha isoform (selectivity versus delta); conditions: relative ratio PI3K-alpha IC50 value / PI3K-delta IC50 value
# T2 construct: purchased Upstate; Millipore 14-602
# Method in brief: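 Recombinant PI3Kα (0.5 nM) pre-incubated 15 min with compound, then reacted 1 h at room temperature with 5 μM PIP2 and 100 μM ATP. After EDTA stop, PIP3 measured by HTRF displacement of biotin-PIP3 from GST-GRP1 PH domain (665/620 nm). 10-point dose response; IC50 corrected using a PIP3 standard curve.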
# T1 sequence (O00329 whole entry, canonical isoform): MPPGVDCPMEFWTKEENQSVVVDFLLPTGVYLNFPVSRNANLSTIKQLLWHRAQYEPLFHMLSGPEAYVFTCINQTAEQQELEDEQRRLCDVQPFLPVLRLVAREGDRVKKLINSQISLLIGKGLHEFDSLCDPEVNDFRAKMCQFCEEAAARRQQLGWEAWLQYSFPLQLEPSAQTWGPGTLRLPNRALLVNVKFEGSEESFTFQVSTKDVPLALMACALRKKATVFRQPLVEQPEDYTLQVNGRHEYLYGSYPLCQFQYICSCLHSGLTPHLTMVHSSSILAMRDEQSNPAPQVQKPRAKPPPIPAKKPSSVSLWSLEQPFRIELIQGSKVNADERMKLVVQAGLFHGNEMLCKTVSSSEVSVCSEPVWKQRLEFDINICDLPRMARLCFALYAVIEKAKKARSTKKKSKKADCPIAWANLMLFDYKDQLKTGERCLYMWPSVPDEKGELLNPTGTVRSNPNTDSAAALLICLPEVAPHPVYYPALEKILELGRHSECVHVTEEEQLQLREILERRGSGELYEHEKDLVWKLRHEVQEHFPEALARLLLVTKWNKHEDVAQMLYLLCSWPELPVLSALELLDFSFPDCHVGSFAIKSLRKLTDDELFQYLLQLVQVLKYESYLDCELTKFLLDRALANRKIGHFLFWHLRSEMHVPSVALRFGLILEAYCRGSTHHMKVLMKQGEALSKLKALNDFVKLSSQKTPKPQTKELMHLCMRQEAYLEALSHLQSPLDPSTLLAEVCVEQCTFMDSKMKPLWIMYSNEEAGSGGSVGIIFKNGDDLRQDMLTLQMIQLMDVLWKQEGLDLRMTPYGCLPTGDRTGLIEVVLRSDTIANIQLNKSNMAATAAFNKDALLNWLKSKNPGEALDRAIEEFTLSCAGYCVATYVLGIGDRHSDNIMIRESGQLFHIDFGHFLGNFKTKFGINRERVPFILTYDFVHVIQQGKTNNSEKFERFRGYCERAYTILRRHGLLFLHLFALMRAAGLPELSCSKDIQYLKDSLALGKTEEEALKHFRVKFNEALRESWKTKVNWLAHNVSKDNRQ
# T1 sequence (P27986 whole entry partner, canonical isoform): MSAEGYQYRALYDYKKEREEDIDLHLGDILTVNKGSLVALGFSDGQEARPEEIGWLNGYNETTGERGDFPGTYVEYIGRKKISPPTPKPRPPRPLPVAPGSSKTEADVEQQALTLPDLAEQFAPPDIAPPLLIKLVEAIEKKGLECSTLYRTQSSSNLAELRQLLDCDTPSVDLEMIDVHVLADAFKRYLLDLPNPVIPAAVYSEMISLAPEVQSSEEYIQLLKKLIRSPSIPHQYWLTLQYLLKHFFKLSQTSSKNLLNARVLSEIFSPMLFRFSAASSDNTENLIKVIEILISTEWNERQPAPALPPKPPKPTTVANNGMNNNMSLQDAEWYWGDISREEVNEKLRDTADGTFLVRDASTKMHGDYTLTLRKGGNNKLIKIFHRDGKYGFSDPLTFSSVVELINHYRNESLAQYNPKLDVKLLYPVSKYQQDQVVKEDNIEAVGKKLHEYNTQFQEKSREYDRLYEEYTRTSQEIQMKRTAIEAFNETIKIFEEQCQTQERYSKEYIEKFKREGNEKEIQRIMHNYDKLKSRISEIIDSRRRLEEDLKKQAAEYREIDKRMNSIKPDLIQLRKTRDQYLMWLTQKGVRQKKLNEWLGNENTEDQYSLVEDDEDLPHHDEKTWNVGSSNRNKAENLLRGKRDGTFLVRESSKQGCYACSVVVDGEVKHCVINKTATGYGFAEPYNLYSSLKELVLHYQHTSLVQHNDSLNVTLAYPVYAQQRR
# T2 sequence (P42336 whole entry, canonical isoform): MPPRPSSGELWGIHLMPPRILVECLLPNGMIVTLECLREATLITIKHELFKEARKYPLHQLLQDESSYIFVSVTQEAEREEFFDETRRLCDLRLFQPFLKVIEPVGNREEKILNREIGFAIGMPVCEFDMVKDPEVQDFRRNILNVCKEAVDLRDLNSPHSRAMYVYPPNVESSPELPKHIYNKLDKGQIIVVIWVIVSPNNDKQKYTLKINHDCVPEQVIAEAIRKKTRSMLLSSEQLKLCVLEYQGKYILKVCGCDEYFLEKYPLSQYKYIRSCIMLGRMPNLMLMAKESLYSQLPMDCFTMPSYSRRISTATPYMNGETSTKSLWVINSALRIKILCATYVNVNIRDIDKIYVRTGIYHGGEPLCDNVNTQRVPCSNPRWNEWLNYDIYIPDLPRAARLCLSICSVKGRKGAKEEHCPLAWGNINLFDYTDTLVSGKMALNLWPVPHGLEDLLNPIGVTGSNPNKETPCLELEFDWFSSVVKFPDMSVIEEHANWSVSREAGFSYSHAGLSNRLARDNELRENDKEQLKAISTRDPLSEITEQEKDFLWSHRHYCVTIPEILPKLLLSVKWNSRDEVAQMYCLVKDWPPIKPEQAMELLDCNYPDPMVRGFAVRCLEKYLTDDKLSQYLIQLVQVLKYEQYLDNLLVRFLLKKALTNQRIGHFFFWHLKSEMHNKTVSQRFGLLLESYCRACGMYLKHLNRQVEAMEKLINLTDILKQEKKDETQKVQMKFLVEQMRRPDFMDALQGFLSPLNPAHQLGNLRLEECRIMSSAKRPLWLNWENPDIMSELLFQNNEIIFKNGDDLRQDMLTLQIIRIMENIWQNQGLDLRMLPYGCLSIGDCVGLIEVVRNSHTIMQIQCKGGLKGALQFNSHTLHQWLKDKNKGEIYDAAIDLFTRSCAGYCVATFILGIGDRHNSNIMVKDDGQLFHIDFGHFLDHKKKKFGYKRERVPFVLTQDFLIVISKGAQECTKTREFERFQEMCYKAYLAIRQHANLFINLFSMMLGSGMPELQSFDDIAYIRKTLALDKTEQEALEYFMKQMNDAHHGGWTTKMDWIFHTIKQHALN
# T2 sequence (P27986 whole entry partner, canonical isoform): as the sequence (P27986 whole entry partner, canonical isoform) above
SMILES,IC50 (PI3Kdelta) [nM],Selectivity versus PI3Kalpha (PI3Kalpha)
"CCn1c(-c2cnc(C)nc2)nc2c(NC3CCc4ncn(C(C)C)c4C3)ncnc21 (single isomer, unassigned) [Compound 5-16, (S or R)-9-ethyl-N-[1-(1-methylethyl)-4,5,6,7-tetrahydro-1H-benzimidazol-6-yl]-8-(2-methylpyrimidin-5-yl)-9H-purin-6-amine]",384,>10
"CCn1c(-c2cnc(C)nc2)nc2c(NC3Cc4c(ncn4C(C)C)C(C)C3)ncnc21 (single isomer, unassigned) [Compound 5-17, 9-ethyl-N-[(4(S or R), 6(S or R)-4-methyl-1-(1-methylethyl)-4,5,6,7-tetrahydro-1H-benzimidazol-6-yl]-8-(2-methylpyrimidin-5-yl)-9H-purin-6-amine]",9,>10
"CCn1c(-c2cnc(C)nc2)nc2c(NC3Cc4c(ncn4C(C)C)C(C)C3)ncnc21 (single isomer, unassigned) [Compound 5-18, 9-ethyl-N-[(4(S or R), 6(S or R)-4-methyl-1-(1-methylethyl)-4,5,6,7-tetrahydro-1H-benzimidazol-6-yl]-8-(2-methylpyrimidin-5-yl)-9H-purin-6-amine]",510,>10
"CCn1c(-c2cnc(C)nc2)nc2c(NC3Cc4c(ncn4C(C)C)CC3C)ncnc21 (single isomer, unassigned) [Compound 5-19, 9-ethyl-N-[cis-5-methyl-1-(1-methylethyl)-4,5,6,7-tetrahydro-1H-benzimidazol-6-yl]-8-(2-methylpyrimidin-5-yl)-9H-purin-6-amine]",1.7,>10
"CCn1c(-c2cnc(C)nc2)nc2c(NC3Cc4c(ncn4C(C)C)CC3C)ncnc21 (single isomer, unassigned) [Compound 5-20, 9-ethyl-N-[trans-5-methyl-1-(1-methylethyl)-4,5,6,7-tetrahydro-1H-benzimidazol-6-yl]-8-(2-methylpyrimidin-5-yl)-9H-purin-6-amine]",120,>10
"CCn1c(-c2cnc(C)nc2)nc2c(NC3CCc4ncn(C(C)C)c4C3C)ncnc21 (single isomer, unassigned) [Compound 5-21, 9-ethyl-N-[((6S, 7S) or (6R, 7R))-7-methyl-1-(1-methylethyl)-4,5,6,7-tetrahydro-1H-benzimidazol-6-yl]-8-(2-methylpyrimidin-5-yl)-9H-purin-6-amine]",5.7,>10
"CCn1c(-c2cnc(C)nc2)nc2c(NC3CCc4ncn(C(C)C)c4C3C)ncnc21 (single isomer, unassigned) [Compound 5-22, 9-ethyl-N-[((6S, 7S) or (6R, 7R))-7-methyl-1-(1-methylethyl)-4,5,6,7-tetrahydro-1H-benzimidazol-6-yl]-8-(2-methylpyrimidin-5-yl)-9H-purin-6-amine]",260,>10
"CCn1c(-c2cnc(C)nc2)nc2c(NC3CCn4cnc(C(C)C)c4C3)ncnc21 (single isomer, unassigned) [Compound 6-1, (S or R)-9-ethyl-N-[1-(1-methylethyl)-5,6,7,8-tetrahydroimidazo[1,5-a]pyridin-7-yl]-8-(2-methylpyrimidin-5-yl)-9H-purin-6-amine]",10,>10
"CCn1c(-c2cnc(C)nc2)nc2c(N[C@H]3Cc4nnc(C5CC5)n4C3)ncnc21 [Compound 1-38, N-[(6S)-3-cyclopropyl-6,7-dihydro-5H-pyrrolo[2,1-c][1,2,4]triazol-6-yl]-9-ethyl-8-(2-methylpyrimidin-5-yl)-9H-purin-6-amine]",5,>10
